Results published in US7968557B2, “Substituted pyrrolo[2,3-2]pyrimidines as protein kinase inhibitors” (Novartis AG, priority 2004, dated 2011).
Where two headings read alike, the source gives them in different places. One block for each compound: values may come before it.

What was measured:
Format in all cases: cell-based
BCR-Abl = biological target: T1, BCR-Abl (Homo sapiens, UniProt P00519); experiment: Inhibition of cellular BCR-Abl dependent proliferation (32D-p210 cells)
T1 construct: expressed in transfected cells; host or cells: murine 32D hemopoietic progenitor cells (32D-p210); the other entry of the earlier key: BCR (P11274, Breakpoint cluster region protein)
T1 sequence (P00519 229-512 limits assumed): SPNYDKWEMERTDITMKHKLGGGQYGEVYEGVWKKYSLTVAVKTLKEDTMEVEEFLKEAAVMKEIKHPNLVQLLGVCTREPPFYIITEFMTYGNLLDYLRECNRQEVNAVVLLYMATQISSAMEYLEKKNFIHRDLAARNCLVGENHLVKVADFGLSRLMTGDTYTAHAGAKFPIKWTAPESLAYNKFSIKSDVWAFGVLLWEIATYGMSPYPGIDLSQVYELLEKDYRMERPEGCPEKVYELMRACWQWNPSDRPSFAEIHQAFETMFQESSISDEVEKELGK
Experimental: Inhibition of Cellular BCR-Abl Dependent Proliferation (High Throughput Method)
The murine cell line used is the 32D hemopoietic progenitor cell line transformed with BCR-Abl cDNA (32D-p210). These cells are maintained in RPMI/10% fetal calf serum (RPMI/FCS) supplemented with penicillin 50 μg/mL, streptomycin 50 μg/mL and L-glutamine […]. Untransformed 32D cells are similarly maintained with the addition of 15% WEHI conditioned medium as a source of IL3.
50 μl of a 32D or 32D-p210 cells suspension are plated in Greiner 384 well microplates (black) at a density of 5000 cells per well. 50 nl of test compound (1 mM in DMSO stock solution) is added to each well (ST1571 is included as a positive control). The cells are incubated for 72 hours at 37° C., 5% CO2. 10 μl of a 60% Alamar Blue solution (Tek diagnostics) is added to each well and the cells are incubated for an additional 24 hours. The fluorescence intensity (Excitation at 530 nm, Emission at 580 nm) is quantified using the Acquest™ system (Molecular Devices).
Inhibition of Cellular BCR-Abl Dependent Proliferation
32D-p210 cells are plated into 96 well TC plates at a density of 15,000 cells per well. 50 μL of two fold serial dilutions of the test compound (Cmax is 40 μM) are added to each well (ST1571 is included as a positive control). […]

FGFR3 = FGFR3 (Homo sapiens, UniProt P22607); experiment: IC50 for FGFR3 (method not described)
Chain of FGFR3 (P22607 23-806, species assumed): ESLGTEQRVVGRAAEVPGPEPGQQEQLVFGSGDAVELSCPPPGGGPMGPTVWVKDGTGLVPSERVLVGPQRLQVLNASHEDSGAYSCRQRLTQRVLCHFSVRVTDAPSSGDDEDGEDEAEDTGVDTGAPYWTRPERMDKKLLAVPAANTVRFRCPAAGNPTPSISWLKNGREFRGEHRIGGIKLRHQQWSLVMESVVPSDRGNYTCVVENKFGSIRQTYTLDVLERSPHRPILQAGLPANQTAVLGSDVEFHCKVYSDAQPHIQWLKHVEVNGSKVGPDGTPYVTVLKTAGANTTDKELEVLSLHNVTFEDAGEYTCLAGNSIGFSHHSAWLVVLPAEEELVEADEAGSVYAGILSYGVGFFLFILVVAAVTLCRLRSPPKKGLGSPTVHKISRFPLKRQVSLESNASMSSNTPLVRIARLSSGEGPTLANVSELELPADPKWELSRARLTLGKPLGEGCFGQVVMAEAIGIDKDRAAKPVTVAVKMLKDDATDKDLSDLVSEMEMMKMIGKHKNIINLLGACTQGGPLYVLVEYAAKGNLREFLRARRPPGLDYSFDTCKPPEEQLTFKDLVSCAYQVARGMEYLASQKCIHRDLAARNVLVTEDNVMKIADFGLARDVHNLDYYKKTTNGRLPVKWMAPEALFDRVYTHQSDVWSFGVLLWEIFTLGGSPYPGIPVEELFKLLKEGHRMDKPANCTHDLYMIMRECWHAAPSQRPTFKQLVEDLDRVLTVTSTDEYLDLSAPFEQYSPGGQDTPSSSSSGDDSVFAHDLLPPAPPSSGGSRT

FLT3-ITD = biological target: T2, FLT3-ITD (Homo sapiens, UniProt P36888, DUP592-605); experiment: Flt-3 inhibition, proliferation of Ba/F3-Flt3-ITD cells
T2 construct: expressed in transfected cells; host or cells: murine Ba/F3 cells, retroviral infection
T2 sequence (P36888 with tags, fused parts or gaps DUP592-605): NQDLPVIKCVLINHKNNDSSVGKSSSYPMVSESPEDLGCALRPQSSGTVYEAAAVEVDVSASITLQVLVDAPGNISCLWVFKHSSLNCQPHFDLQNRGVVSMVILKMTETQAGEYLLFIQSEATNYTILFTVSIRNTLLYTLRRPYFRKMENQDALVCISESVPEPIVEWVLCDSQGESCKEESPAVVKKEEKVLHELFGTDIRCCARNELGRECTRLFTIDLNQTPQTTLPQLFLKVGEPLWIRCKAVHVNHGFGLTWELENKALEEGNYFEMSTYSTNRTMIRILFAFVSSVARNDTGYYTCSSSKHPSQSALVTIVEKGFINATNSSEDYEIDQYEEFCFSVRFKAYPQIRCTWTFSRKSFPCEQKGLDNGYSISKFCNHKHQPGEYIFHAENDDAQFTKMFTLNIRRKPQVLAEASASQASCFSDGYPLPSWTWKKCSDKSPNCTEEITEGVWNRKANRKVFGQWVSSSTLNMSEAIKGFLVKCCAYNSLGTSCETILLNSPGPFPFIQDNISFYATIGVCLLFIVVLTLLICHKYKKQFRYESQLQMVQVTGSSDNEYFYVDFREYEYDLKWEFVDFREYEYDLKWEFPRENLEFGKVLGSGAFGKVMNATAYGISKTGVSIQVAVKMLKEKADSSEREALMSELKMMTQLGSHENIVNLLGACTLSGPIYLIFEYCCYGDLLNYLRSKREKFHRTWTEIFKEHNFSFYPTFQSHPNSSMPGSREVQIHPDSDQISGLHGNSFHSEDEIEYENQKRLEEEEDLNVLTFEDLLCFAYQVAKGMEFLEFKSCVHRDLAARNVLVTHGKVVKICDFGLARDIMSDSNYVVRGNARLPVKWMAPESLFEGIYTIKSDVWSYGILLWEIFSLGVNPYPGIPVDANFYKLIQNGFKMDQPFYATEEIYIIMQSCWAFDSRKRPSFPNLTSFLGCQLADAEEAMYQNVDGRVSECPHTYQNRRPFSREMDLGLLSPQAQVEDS
Text: Compounds that have differential activity (more than or equal to 10 fold difference in sensitivity between Flt3+cell lines and Flt3− cell lines are selected for further study.
The cell lines used for the initial screening are sub-lines of Ba/F3 cells that are engineered to over-express mutant or wild-type (non-mutated) Flt3 following infection with a retrovirus expressing appropriate Flt3 cDNAs. The parent cell line, Ba/F3 is dependent on interleukin-3 for proliferation, and when deprived of IL-3, the cells rapidly cease proliferation and die. The retrovirus expresses Flt3 from the retrovirual LTR and the neo gene from an IRES site. Ba/F3 cells are selected in G418 and analyzed for expression of Flt3 by fluorescence activated cell sorting (FACS). Cell lines with two different Flt3 mutations are used. One mutant expresses a Flt-3 that has a 14 amino acid duplication in the juxtamembrane domain encoded by exon 11, the specific duplication being . . . VDFREYEYDLKWEF . . . […]
Yo-Pro-1 iodide (Molecular Probes) is added to the cells at a final concentration of 2.5 μM in NaCl/Na-citrate buffer. The cells are incubated with Yo-Pro for 10 minutes at room temperature and then read on a fluorimeter for determination of cytotoxicity. Next, the cells are lysed with NP40/EDTA/EGTA buffer, incubated at room temperature for 90 minutes and read for the determination of proliferation. […]

JAK2 = JAK2 (Homo sapiens, UniProt O60674); experiment: IC50 for JAK2 (method not described)
Chain of JAK2 (O60674 whole entry, species assumed): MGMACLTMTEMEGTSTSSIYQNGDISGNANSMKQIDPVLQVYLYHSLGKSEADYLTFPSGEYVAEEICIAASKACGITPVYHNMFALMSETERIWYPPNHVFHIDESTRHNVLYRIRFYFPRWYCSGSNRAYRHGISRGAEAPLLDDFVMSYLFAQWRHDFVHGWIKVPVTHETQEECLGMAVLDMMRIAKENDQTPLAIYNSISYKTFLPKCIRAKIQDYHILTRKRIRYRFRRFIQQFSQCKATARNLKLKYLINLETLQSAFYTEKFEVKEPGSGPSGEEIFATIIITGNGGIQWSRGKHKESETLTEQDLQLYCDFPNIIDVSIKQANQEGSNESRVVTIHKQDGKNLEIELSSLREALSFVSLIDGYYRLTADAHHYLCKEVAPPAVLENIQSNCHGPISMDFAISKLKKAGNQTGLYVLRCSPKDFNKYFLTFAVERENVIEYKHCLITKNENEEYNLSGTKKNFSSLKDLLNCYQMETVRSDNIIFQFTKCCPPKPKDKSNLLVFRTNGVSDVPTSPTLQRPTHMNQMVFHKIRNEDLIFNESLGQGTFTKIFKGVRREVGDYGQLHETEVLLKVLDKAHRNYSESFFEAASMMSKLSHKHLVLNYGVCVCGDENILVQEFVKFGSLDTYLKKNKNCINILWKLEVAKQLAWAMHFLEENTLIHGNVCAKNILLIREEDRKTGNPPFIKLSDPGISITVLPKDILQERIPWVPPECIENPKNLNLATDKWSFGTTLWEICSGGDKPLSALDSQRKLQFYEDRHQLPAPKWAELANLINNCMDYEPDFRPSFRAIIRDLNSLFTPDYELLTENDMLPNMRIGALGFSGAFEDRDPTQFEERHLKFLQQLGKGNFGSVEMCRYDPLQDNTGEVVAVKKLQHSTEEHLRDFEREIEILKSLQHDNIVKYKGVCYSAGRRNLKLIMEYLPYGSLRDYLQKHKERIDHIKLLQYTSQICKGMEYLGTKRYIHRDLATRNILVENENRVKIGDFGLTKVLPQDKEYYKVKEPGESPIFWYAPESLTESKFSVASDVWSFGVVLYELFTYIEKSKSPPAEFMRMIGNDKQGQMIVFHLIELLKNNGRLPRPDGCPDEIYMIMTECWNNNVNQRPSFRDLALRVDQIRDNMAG

PDGFR-beta = biological target: T3, PDGFR-beta (Homo sapiens, UniProt P09619); experiment: IC50 for BaF3/PDGFR-beta (method not described)
T3 construct: expressed in transfected cells; host or cells: BaF3
T3 sequence (P09619 33-1106, species assumed): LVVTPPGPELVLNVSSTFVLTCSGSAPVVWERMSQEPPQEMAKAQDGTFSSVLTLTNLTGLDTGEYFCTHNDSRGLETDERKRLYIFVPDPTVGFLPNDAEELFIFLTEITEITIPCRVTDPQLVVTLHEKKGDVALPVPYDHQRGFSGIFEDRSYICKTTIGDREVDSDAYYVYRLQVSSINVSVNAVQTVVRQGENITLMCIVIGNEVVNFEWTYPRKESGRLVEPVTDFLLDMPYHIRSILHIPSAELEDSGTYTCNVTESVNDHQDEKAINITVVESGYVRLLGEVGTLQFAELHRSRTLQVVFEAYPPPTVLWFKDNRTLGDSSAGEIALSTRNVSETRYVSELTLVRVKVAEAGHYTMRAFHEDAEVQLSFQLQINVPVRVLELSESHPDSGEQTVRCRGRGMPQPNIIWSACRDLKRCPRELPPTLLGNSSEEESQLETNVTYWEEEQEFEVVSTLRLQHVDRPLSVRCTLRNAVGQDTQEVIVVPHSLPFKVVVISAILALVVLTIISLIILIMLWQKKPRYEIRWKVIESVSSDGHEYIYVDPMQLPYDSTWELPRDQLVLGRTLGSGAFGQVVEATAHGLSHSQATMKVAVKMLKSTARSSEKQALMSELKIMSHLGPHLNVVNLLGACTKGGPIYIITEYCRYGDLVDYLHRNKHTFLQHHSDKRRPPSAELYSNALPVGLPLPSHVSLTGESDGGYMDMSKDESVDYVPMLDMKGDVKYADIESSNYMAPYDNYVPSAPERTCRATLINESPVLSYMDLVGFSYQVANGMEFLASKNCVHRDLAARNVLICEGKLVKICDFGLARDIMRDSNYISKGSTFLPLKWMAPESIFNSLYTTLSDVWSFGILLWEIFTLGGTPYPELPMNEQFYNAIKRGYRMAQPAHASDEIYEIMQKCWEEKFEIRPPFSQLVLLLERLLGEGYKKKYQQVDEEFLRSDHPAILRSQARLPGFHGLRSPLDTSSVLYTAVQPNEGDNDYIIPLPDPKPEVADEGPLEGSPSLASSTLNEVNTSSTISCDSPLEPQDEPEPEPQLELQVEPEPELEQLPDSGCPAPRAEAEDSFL

Tel-TRKC = Tel-TRKC (Homo sapiens, UniProt Q16288); experiment: IC50 for Tel-TRKC (method not described)
Chain of Tel-TRKC (Q16288 530-839): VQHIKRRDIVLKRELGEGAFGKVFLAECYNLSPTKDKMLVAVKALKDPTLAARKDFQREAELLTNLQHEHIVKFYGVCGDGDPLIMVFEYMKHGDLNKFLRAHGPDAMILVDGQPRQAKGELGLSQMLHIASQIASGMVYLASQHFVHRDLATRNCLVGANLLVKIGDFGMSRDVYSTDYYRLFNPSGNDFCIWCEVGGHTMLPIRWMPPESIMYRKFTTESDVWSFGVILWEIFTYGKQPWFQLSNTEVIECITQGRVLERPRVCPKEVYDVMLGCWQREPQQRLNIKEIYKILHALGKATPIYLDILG
Chain of Tel-TRKC (P41212 1-336 partner): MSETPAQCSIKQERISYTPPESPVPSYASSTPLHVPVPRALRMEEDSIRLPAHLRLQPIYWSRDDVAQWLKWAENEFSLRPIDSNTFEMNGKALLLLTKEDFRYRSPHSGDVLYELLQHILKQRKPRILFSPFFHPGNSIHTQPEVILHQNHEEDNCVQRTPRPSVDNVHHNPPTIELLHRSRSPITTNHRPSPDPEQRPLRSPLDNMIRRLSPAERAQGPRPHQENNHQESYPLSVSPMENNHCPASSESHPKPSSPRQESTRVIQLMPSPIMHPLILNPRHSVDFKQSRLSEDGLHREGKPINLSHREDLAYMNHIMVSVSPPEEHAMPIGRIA

SMILES: COc1cc(Nc2ncc3c(n2)N(c2ccccn2)CC3)cc(OC)c1OC [example 61, (7-Pyridin-2-yl-6,7-dihydro-5H-pyrrolo[2,3-d]pyrimidin-2-yl)-(3,4,5-trimethoxy-phenyl)-amine]
IC50 (FGFR3): 284 nM

SMILES: COc1cc(Nc2ncc3ccn(-c4cccc(CC#N)c4)c3n2)cc(OC)c1OC [example 104, {3-[2-(3,4,5-Trimethoxy-phenylamino)-pyrrolo[2,3-d]pyrimidin-7-yl]-phenyl}-acetonitrile]
IC50 (FLT3-ITD): 29 nM
IC50 (FGFR3): 282 nM
IC50 (JAK2): 342 nM
IC50 (PDGFR-beta; read-out: IC50 for PDGFR-beta): 33 nM
IC50 (Tel-TRKC): 479 nM

Further lines, results first:

IC50 (BCR-Abl): 408 nM
SMILES: COc1ccc(Nc2ncc3ccn(-c4ccnc(Cl)c4)c3n2)c(C)c1 [example 47, [7-(2-Chloro-pyridin-4-yl)-7H-pyrrolo[2,3-d]pyrimidin-2-yl]-(4-methoxy-2-methyl-phenyl)-amine]

IC50 (FLT3-ITD): 16 nM
SMILES: COc1cc(Nc2ncc3ccn(-c4cccc(CCC#N)c4)c3n2)cc(OC)c1OC [example 85, 3-{3-[2-(3,4,5-Trimethoxy-phenylamino)-pyrrolo[2,3-d]pyrimidin-7-yl]-phenyl}-propionitrile]

IC50 (PDGFR-beta; BaF3/PDGFR-beta, read-out: IC50 for BaF3/PDGFR-beta): 29 nM
SMILES: COc1cc(Nc2ncc3ccn(-c4cccc(Cc5nnnn5C)c4)c3n2)cc(OC)c1OC [example 120, {7-[3-(1-Methyl-1H-tetrazol-5-ylmethyl)-phenyl]-7H-pyrrolo[2,3-d]pyrimidin-2-yl}-(3,4,5-trimethoxy-phenyl)-amine]
